{"source": "a melting point compilation (Tetko et al.; mined from patent text by program, amines drawn as free bases though some values may be those of a salt)"}
{"units": {"melting point": "°C"}}
{"smiles": "CCOc1ccc([N+](=O)[O-])c(Nc2ccc(C(C)C)cc2)c1", "melting point": 100}
{"smiles": "O=C(c1ccc(-c2ccccc2)cc1)C1CCN(CCc2c[nH]c3ccccc23)CC1", "melting point": "189 to 192"}
{"smiles": "O=C(c1ccccc1)c1nc(Br)c2n1CCC2C(=O)O", "note": "(centres undefined)", "melting point": "190 to 192"}
{"smiles": "CC1(C)OCC(CN2C(=O)C3(COc4cc5c(cc43)OCCO5)c3ccccc32)O1", "note": "(centres undefined)", "melting point": "55 to 57"}
{"smiles": "CC(=O)Oc1cccc(C(=O)N[C@H]2COC(C)(C)OC[C@@H]2OS(C)(=O)=O)c1C", "melting point": "127 to 128"}
{"smiles": "Cc1nc(N2CCN(CC3CC3)C2=O)sc1C(=O)NCc1cccnc1", "melting point": "157 to 158"}
{"smiles": "O=C(CCCCCCNC(=O)c1cc2cccc3c2n1CCC3)NO", "melting point": "160 to 161"}
{"smiles": "O=C(/C=C/c1ccc(C(F)(F)F)cc1-c1ccncc1)Nc1ccc2[nH]ccc2c1", "melting point": "229 to 234"}
{"smiles": "CCn1ncc2c1ncc1c(=O)n3nc(C)cc3n(C)c12", "melting point": "306 to 307"}
{"smiles": "CC[C@@H](O)CC(=O)N[C@H]1CC[C@H](CCN2CCC(c3cccc4c3CCO4)CC2)CC1", "melting point": 201}
{"smiles": "O=[N+]([O-])c1ccc(OCC(COc2ccc([N+](=O)[O-])cc2)(COc2ccc([N+](=O)[O-])cc2)COc2ccc([N+](=O)[O-])cc2)cc1", "melting point": "274 to 282"}
{"smiles": "CSC(Nc1cc(C(F)(F)F)cc(C(F)(F)F)c1)=C(C#N)S(=O)(=O)C(C)C", "melting point": "130 to 133"}
{"smiles": "Cc1c(C(=O)N[C@H](C)[C@](O)(Cn2cncn2)c2ccc(F)cc2F)cnn1-c1ccccc1Cl", "melting point": "232 to 233"}
{"smiles": "CCCn1c(=O)c2c(NC)n[nH]c2n(Cc2ccc(Br)cc2)c1=O", "melting point": "308 to 310"}
{"smiles": "CC1(C)SC(C)(C)N(C(=O)COc2ccc(Cl)cc2)C1C(=O)O", "note": "(centres undefined)", "melting point": "146 to 147"}
{"smiles": "O=C(Nc1c(OCCN(Cc2ccccc2)C(=O)C(F)(F)F)cccc1[N+](=O)[O-])C(F)(F)F", "melting point": "114 to 115"}
{"smiles": "CCC(CC)C1CC1(CN)C(=O)O", "note": "(centres undefined)", "melting point": "255 to 257"}
{"smiles": "CCN(CC)CCn1c2ccccc2c(=NN=C2SCCN2C)c2ccccc21", "melting point": "123 to 125"}
{"smiles": "O=C(OC1CCCCC1)c1ncn2c1[C@@H]1CCCN1C(=O)c1c(I)cccc1-2", "melting point": "181 to 182"}
{"smiles": "COC(=O)/C=C(\\c1ccccc1)c1ccc2c(c1)C(C)(C)OC(=O)N2", "melting point": "181 to 182"}
{"smiles": "COC(=O)c1ccccc1SCOc1ccc(Cl)cc1Cl", "melting point": "122 to 124"}
{"smiles": "COc1cc(NC(=O)Nc2ccc3c(c2)CCN(C(=O)Nc2ccc(OCC(O)CO)cc2Cl)C3)cc(OC)c1", "note": "(centres undefined)", "melting point": "108 to 110"}
{"smiles": "O=c1c2c(Cc3cccc(OC(F)(F)F)c3)n[nH]c2c2cccnc2n1-c1cccc(OC(F)(F)F)c1", "melting point": "174 to 177"}
{"smiles": "C=C(C)COc1ccc2c(=O)c(C)c(-c3ccccc3)oc2c1C(=O)C=Cc1cc(OC)c(OC)c(OC)c1", "melting point": "82 to 84"}
{"smiles": "CCOC(=O)c1c(-c2cccc(C)c2)oc(Cl)c(Cl)c1=O", "melting point": 113}
{"smiles": "COC(=O)CCCc1cc2nc(Cl)ccc2n1S(=O)(=O)c1ccc(N(C)C)cc1Cl", "melting point": "123 to 124"}
{"smiles": "CCOC(=O)c1cccc(-c2ccccc2C#N)c1", "melting point": "81.5 to 82"}
{"smiles": "COc1ccc2cc(CN(C)C(=O)c3oc4ccccc4c3C)ccc2c1Br", "melting point": "138 to 140"}
{"smiles": "O=C1CCCc2nc3ccccc3c(NCc3ccc(OCc4ccccc4)cc3)c21", "melting point": "153 to 157"}
{"smiles": "Cc1nnc2n1-c1ccc(C#CCN3Cc4ccccc4C3=O)cc1C(c1ccccc1F)=NC2", "melting point": "165 to 168"}
{"smiles": "Nc1ccc(C(=O)c2cccc3c2NCC3)cc1", "melting point": "133 to 135"}
{"smiles": "O=C(O)c1cc2c(cc1C(=O)O)C(c1ccccc1)(C(F)(F)F)c1cc(C(=O)O)c(C(=O)O)cc1O2", "melting point": 276}
{"smiles": "Cc1c(C(=O)Nc2ccc(OCC(C)(C)C)c(C#N)c2)cnn1CCO", "melting point": "98 to 100"}
{"smiles": "NC(=NO)c1ncn2c1[C@@H]1CCCN1C(=O)c1c(Br)cccc1-2", "melting point": "235 to 237"}
{"smiles": "CSc1[nH]cc(Cc2ccccc2)c1[N+](=O)[O-]", "melting point": "190 to 192"}
{"smiles": "c1coc(P(CCP(c2ccco2)c2ccco2)c2ccco2)c1", "melting point": "94 to 96"}
{"smiles": "Nc1ccc(SCCn2cnnc2)cc1", "melting point": "160 to 162"}
{"smiles": "CCOC(=O)C1=C(C)NN=C(CC)C1c1ccc(Cl)cc1", "note": "(centres undefined)", "melting point": 111}
{"smiles": "COC(=O)CC(O)CC(O)CCc1c(-c2ccc(F)cc2)c(-c2ccccc2)c(C(=O)Nc2ccc(C(=O)OC)cn2)n1C(C)C", "note": "(centres undefined)", "melting point": "71 to 75"}
{"smiles": "CC(C)(C)OC(=O)N1CC=C(c2ccc3[nH]c(=O)[nH]c3c2)CC1", "melting point": "244 to 245"}
{"smiles": "CCOC(=O)c1c(C)cc2c(c1C)c(=O)n(-c1ccccc1Cl)c(=O)n2CC(N)=O", "melting point": "285 to 287"}
{"smiles": "CCCCc1nc(SC)c(C(=O)OCC)n1Cc1cccc(-c2cccc(S(=O)(=O)NC#N)c2)c1", "melting point": 112}
{"smiles": "CCc1cc2c(OC)ccc(C)c2nc1Cl", "melting point": "101 to 102"}
{"smiles": "CC#CCOc1ccc(S(=O)(=O)NC(COCCBr)C(=O)OC)cc1", "note": "(centres undefined)", "melting point": "45 to 46"}
{"smiles": "CCOC(=O)c1cccn2cc(C(F)(F)F)nc12", "melting point": "108 to 110"}
{"smiles": "CN(C)Cc1ccc(CSCCNc2ncc([N+](=O)[O-])c(=O)[nH]2)o1", "melting point": "201 to 204"}
{"smiles": "Cc1cc(C(=O)c2[nH]c3cc(Cl)ccc3c2N)ccc1Cl", "melting point": "142 to 143"}
{"smiles": "CC(=O)c1cnc2c(n1)C(C)(C)CCC2(C)C", "melting point": "68 to 69"}
{"smiles": "CC(=O)c1cn(-c2c(Cl)cc(OC(F)(F)F)cc2Cl)nc1C#N", "melting point": "106 to 107"}
{"smiles": "COCCc1ccc(OCC(O)CNCCNC(=O)C2CCCOC2)cc1", "note": "(centres undefined)", "melting point": "107 to 108"}
{"smiles": "CCN1CC(CCCl)N(C)c2ccccc2C1=O", "note": "(centres undefined)", "melting point": "75 to 79"}
{"smiles": "CCN1C(=O)C(CCN2CCN(c3ccccc3OC)CC2)Sc2ccccc21", "note": "(centres undefined)", "melting point": "142 to 144"}
{"smiles": "O=S(=O)(Cl)Oc1cccc2cnccc12", "melting point": "152 to 155"}
{"smiles": "O=c1[nH]c2cc(I)ccc2n(CP(=O)(O)O)c1=O", "melting point": "295 to 297"}
{"smiles": "CC(C)C/C(=C\\F)CN1C(=O)c2ccccc2C1=O", "melting point": "57 to 60"}
{"smiles": "COc1cccc2c1C(OC)(OC)C=CC2=O", "melting point": "62 to 63"}
{"smiles": "O=C(N1CCCC(c2cccc3[nH]ccc23)C1)C(F)(F)F", "note": "(centres undefined)", "melting point": 170}
{"smiles": "COC(=O)Cc1ccccc1N(Cc1ccc(Cl)cc1)S(C)(=O)=O", "melting point": "73 to 75"}
{"smiles": "O=[N+]([O-])c1cc(F)c(N2CCC3(CC2)CO3)c(F)c1", "melting point": "96 to 97"}
{"smiles": "O=c1c2cc(Br)ccc2nc(CSc2ncnc3[nH]cnc23)n1-c1ccccc1Cl", "melting point": "212 to 242"}
{"smiles": "COC(=O)CCCc1nc(-c2ccc(F)cc2)c(-c2ccc(S(C)(=O)=O)cc2)o1", "melting point": "89 to 91"}
{"smiles": "CN(C)CCCOc1ccc(-c2nnc(-c3ccc(Oc4ccccc4)cc3)o2)cc1", "melting point": 95}
{"smiles": "CCOC(=O)c1ccc(CCCCN2C(=O)c3ccccc3C2=O)cc1", "melting point": "85 to 86"}
{"smiles": "O=C(O)COc1cccc(-c2ccccc2OC2OC(CO)C(O)C(O)C2O)c1", "note": "(centres undefined)", "melting point": "58 to 60"}
{"smiles": "O=C(Nc1cccc2c(=O)cc(C(=O)O)oc12)c1ccc2c(c1)CC(CSCc1ccccc1)O2", "note": "(centres undefined)", "melting point": "122 to 125"}
{"smiles": "CC(=NO)C(C)Oc1ccccc1", "note": "(centres undefined)", "melting point": "65 to 67"}
{"smiles": "CCc1nc2c(cnn2CC)c(NC2CCOCC2)c1CNC(=O)c1cc(C)cc(C(=O)O)c1", "melting point": "236 to 239"}
{"smiles": "CN1C(=O)CN=C(c2ccccc2F)c2c1ccc(NC(=O)Nc1ccc(Cl)cc1)c2Cl", "melting point": 285}
{"smiles": "COCCOc1ccc(CO)c(Oc2ncc(C(F)(F)F)cc2Cl)c1", "melting point": "85 to 85.5"}
{"smiles": "Fc1cc(F)c2c(c1)C[C@@H](n1ccn(CCc3ccccc3)c1=S)CC2", "melting point": "131 to 133"}
{"smiles": "COc1cc(OC)nc(Oc2cccc3c2C(=O)OC3C)n1", "note": "(centres undefined)", "melting point": "190 to 191"}
{"smiles": "C=CCN1CN(C(=O)c2c(F)cccc2F)C(=O)N(c2ccc(Cl)cc2)C1", "melting point": "87 to 88"}
{"smiles": "CCCCOC(=O)c1cccc(I)c1C(=O)NC(C)(C)CS(C)=O", "note": "(centres undefined)", "melting point": "57.5 to 66.3"}
{"smiles": "CC(O)(CC(=O)O)c1ccc(-c2ccc(Br)cc2Br)cc1", "note": "(centres undefined)", "melting point": "118 to 120"}
{"smiles": "CC(=O)NCC1CN(c2cc(F)c(N3CCN(C(=O)COC(=O)c4ccc(N(C)C)cc4)CC3)c(F)c2)C(=O)O1", "note": "(centres undefined)", "melting point": "199 to 202"}
{"smiles": "c1ccc2c(c1)CC(CN1CCN(c3ccc4c(c3)OCC4)CC1)C2", "melting point": "171 to 173"}
{"smiles": "O=C(O)c1ccccc1OCCN1CCC(c2c[nH]c3ccccc23)CC1", "melting point": 230}
{"smiles": "BrCCCCOc1ccc2c(ccn2-c2ccc(Br)cc2)c1", "melting point": "80 to 81"}
{"smiles": "C=CCOc1ccc(C=CC(=O)Oc2ccc(OC(=O)C(=C)C)cc2)cc1", "melting point": 118}
{"smiles": "COc1ccc(CNc2cc3c(Nc4ccc(Br)c(Br)c4)ncnc3cn2)cc1", "melting point": "166 to 169"}
{"smiles": "CCCCCCCCCCCCCCCCNc1ccc(C(=O)NCC(=O)OCC)cc1", "melting point": "97.5 to 99.5"}
{"smiles": "CC(C)C(c1ccc(N)cc1)n1cncn1", "note": "(centres undefined)", "melting point": 118}
{"smiles": "O/N=C1/c2ccccc2OC12CCCCCC2", "melting point": "104 to 106"}
{"smiles": "COc1ccc(C2C(C(=O)c3ccc(C(C)C)cc3)=C(O)C(=O)N2c2ccc(C)nn2)cc1", "note": "(centres undefined)", "melting point": "263 to 267"}
{"smiles": "CCCCCCC1CCC(c2ccc(CCCCC)cc2)OC1=O", "note": "(centres undefined)", "melting point": "101 to 102"}
{"smiles": "CCSCC12CCC(=O)C=C1CCC1C3CC(C)C(=O)C3(C)CCC12", "note": "(centres undefined)", "melting point": 102}
{"smiles": "COC(=O)c1ccc(C(=O)N[C@@H]2CCCC[C@@H]2c2ccc(OC)c(OC)c2)cc1", "melting point": "154 to 156"}
{"smiles": "CCNC(=O)[C@@H]1Cc2ccccc2N1", "melting point": "92 to 95"}
{"smiles": "NC(=O)c1cc([N+](=O)[O-])ccc1SSc1ccc([N+](=O)[O-])cc1C(N)=O", "melting point": "266 to 269"}
{"smiles": "COC(=O)c1ccc2cc(OC)ccc2c1O", "melting point": "109 to 111"}
{"smiles": "O=c1[nH]c2c(F)cccc2o1", "melting point": "131 to 133"}
{"smiles": "COC(=O)C1CCCn2c(C(=O)c3ccc(F)cc3)ccc21", "note": "(centres undefined)", "melting point": "78 to 79"}
{"smiles": "CCC(=O)c1ccc(=O)[nH]c1CC", "melting point": "138 to 140"}
{"smiles": "COC(=O)C=C1C=C(C(C)(C)C)C(=O)C(C(C)(C)C)=C1", "melting point": "87 to 89"}
{"smiles": "C=CC(=O)Nc1cccc(OC(=O)NCCCCCCCCCCCCCCCCCC)c1", "melting point": "124 to 126"}
{"smiles": "COc1cc2ccc(C(=N)NO)cc2cc1OC", "melting point": "203 to 208"}
{"smiles": "CC(C)S(=O)(=O)c1cc(OCc2ccc(S(C)(=O)=O)cn2)c2[nH]nc(Nc3nccs3)c2c1", "melting point": "160 to 161"}
{"smiles": "CC(=O)C(C)(C)C(Cl)C=Cc1ccccc1", "note": "(centres undefined)", "melting point": 71}
{"smiles": "COc1cc(OC)nc(NC(=O)NS(=O)(=O)c2ccccc2C2CCOC2=O)n1", "note": "(centres undefined)", "melting point": "164 to 166"}
